Laboratory results: PubChem BioAssay AID200 (DTP/NCI, 2004)
Several values for one entry are separate records, joined by “and”; a condition that tells them apart may be missing. Equal values may be shown once. Toxic doses and inconclusive results are not listed.

Tested on: B6C3F1 mice, B16 melanoma ip, median survival T/C
Assay: NCI In Vivo Anticancer Drug Screen. Data for tumor model B16 Melanoma (intraperitoneal) in B6C3F1 mice
Conditions: endpoint: median survival time, higher = longer survival
Procedure: The antitumor activity of compounds was measured in mice bearing transplantable tumors. Survival or tumor size were measured and the results are expressed as the measurement made in the treated group (T) divided by the measurement made in the vehicle treated control group (C). The tumor model used in this assay is B16 Melanoma (intraperitoneal) in B6C3F1 mice

[1] = dose: 100.0 mg/kg/injection, schedule: Q01DX009 (ip), vehicle: Klucel (hydroxypropylcellulose) (HPC)
[2] = dose: 200.0 mg/kg/injection, schedule: Q01DX009 (ip), vehicle: Klucel (hydroxypropylcellulose) (HPC)
[3] = dose: 400.0 mg/kg/injection, schedule: Q01DX009 (ip), vehicle: Klucel (hydroxypropylcellulose) (HPC)

COC(=O)NC1C(C)OC(OC2C/C=C(/C)C3C=CC4C(OC5CC(OC6CCC(OC7CC(O)C(OC8CCC(O)C(C)O8)C(C)O7)C(C)O6)C(OC(C)=O)C(C)O5)C(C)CC(C)C4C3(C)/C(O)=C3/C(=O)OC4(CC(C=O)=CC(O)C4/C=C\2C)C3=O)CC1(C)[N+](=O)[O-] (stereo not drawn)
T/C (dose: 1.25 mg/kg/injection, schedule: Q01DX009 (ip), vehicle: water): 114 % of control | T/C (dose: 1.69 mg/kg/injection, schedule: Q03HX024 (ip), vehicle: water): 165 % of control | T/C (dose: 2.4 mg/kg/injection, schedule: Q01DX005 (ip), vehicle: water): 124 % of control | T/C (dose: 2.43 mg/kg/injection, schedule: Q01DX005 (iv), vehicle: water): 110 % of control | T/C (dose: 2.5 mg/kg/injection, schedule: Q01DX009 (sc), vehicle: water): 98 % of control | T/C (dose: 2.53 mg/kg/injection, schedule: Q03HX024 (ip), vehicle: water): 186 % of control | T/C (dose: 3.0 mg/kg/injection, schedule: Q01DX005 (iv), vehicle: water): 99 % of control | T/C (dose: 3.4 mg/kg/injection, schedule: Q03HX008 (ip), vehicle: water): 161 % of control | T/C (dose: 3.6 mg/kg/injection, schedule: Q01DX005 (ip), vehicle: water): 160 % of control | T/C (dose: 3.63 mg/kg/injection, schedule: Q01DX005 (iv), vehicle: water): 114 % of control | T/C (dose: 3.77 mg/kg/injection, schedule: Q03HX024 (ip), vehicle: water): 173 % of control | T/C (dose: 4.5 mg/kg/injection, schedule: Q01DX005 (iv), vehicle: water): 105 % of control | T/C (dose: 4.5 mg/kg/injection, schedule: Q01DX009 (ip), vehicle: water): 161 % of control | T/C (dose: 5.0 mg/kg/injection, schedule: Q01DX009 (sc), vehicle: water): 97 % of control | T/C (dose: 5.08 mg/kg/injection, schedule: Q03HX008 (ip), vehicle: water): 171 % of control | T/C (dose: 5.3 mg/kg/injection, schedule: Q01DX005 (ip), vehicle: water): 177 % of control | T/C (dose: 5.4 mg/kg/injection, schedule: Q01DX005 (ip), vehicle: water): 165 % of control | T/C (dose: 5.41 mg/kg/injection, schedule: Q01DX005 (iv), vehicle: water): 108 % of control | T/C (dose: 5.63 mg/kg/injection, schedule: Q03HX024 (ip), vehicle: water): 203 % of control | T/C (dose: 6.0 mg/kg/injection, schedule: Q01DX009 (sc), vehicle: water): 101 % of control | T/C (dose: 6.7 mg/kg/injection, schedule: Q01DX005 (iv), vehicle: water): 105 % of control | T/C (dose: 6.7 mg/kg/injection, schedule: Q01DX009 (ip), vehicle: water): 165 % of control | T/C (dose: 6.74 mg/kg/injection, schedule: Q01DX009 (oral), vehicle: water): 98 % of control | T/C (dose: 8.0 mg/kg/injection, schedule: Q01DX005 (ip), vehicle: water): 153 % of control and 159 % of control | T/C (dose: 8.0 mg/kg/injection, schedule: Q01DX005 (iv), vehicle: water): 108 % of control and 120 % of control | T/C (dose: 8.08 mg/kg/injection, schedule: Q01DX005 (iv), vehicle: water): 98 % of control | T/C (dose: 8.1 mg/kg/injection, schedule: Q01DX005 (ip), vehicle: water): 175 % of control | T/C (dose: 9.0 mg/kg/injection, schedule: Q01DX009 (sc), vehicle: water): 109 % of control | T/C (dose: 9.1 mg/kg/injection, schedule: Q04DX003 (ip), vehicle: water): 177 % of control | T/C (dose: 10.0 mg/kg/injection, schedule: Q01DX005 (iv), vehicle: water): 103 % of control | T/C (dose: 10.0 mg/kg/injection, schedule: Q01DX009 (sc), vehicle: water): 100 % of control | T/C (dose: 10.05 mg/kg/injection, schedule: Q01DX009 (oral), vehicle: water): 102 % of control | T/C (dose: 12.0 mg/kg/injection, schedule: Q01DX005 (ip), vehicle: water): 171 % of control and 197 % of control | T/C (dose: 12.0 mg/kg/injection, schedule: Q01DX005 (iv), vehicle: water): 108 % of control and 105 % of control | T/C (dose: 12.06 mg/kg/injection, schedule: Q01DX001 (iv), vehicle: water): 116 % of control | T/C (dose: 12.1 mg/kg/injection, schedule: Q01DX005 (iv), vehicle: water): 110 % of control | T/C (dose: 13.0 mg/kg/injection, schedule: Q01DX005 (ip), vehicle: water): 162 % of control | T/C (dose: 13.0 mg/kg/injection, schedule: Q01DX009 (sc), vehicle: water): 101 % of control | T/C (dose: 13.5 mg/kg/injection, schedule: Q04DX003 (ip), vehicle: water): 165 % of control | T/C (dose: 15.0 mg/kg/injection, schedule: Q01DX005 (iv), vehicle: water): 110 % of control | T/C (dose: 15.0 mg/kg/injection, schedule: Q01DX009 (ip), vehicle: water): 180 % of control | T/C (dose: 15.0 mg/kg/injection, schedule: Q01DX009 (oral), vehicle: water): 103 % of control | T/C (dose: 18.0 mg/kg/injection, schedule: Q01DX001 (ip), vehicle: water): 191 % of control | T/C (dose: 18.0 mg/kg/injection, schedule: Q01DX005 (ip), vehicle: water): 112 % of control | T/C (dose: 18.0 mg/kg/injection, schedule: Q01DX005 (iv), vehicle: water): 110 % of control and 97 % of control and 104 % of control | T/C (dose: 18.1 mg/kg/injection, schedule: Q01DX005 (ip), vehicle: water): 159 % of control | T/C (dose: 20.0 mg/kg/injection, schedule: Q01DX005 (ip), vehicle: water): 121 % of control | T/C (dose: 20.0 mg/kg/injection, schedule: Q01DX009 (sc), vehicle: water): 95 % of control and 103 % of control | T/C (dose: 20.2 mg/kg/injection, schedule: Q04DX003 (ip), vehicle: water): 178 % of control | T/C (dose: 22.39 mg/kg/injection, schedule: Q01DX009 (oral), vehicle: water): 96 % of control | T/C (dose: 27.0 mg/kg/injection, schedule: Q01DX001 (ip), vehicle: water): 203 % of control | T/C (dose: 27.0 mg/kg/injection, schedule: Q01DX001 (iv), vehicle: water): 108 % of control | T/C (dose: 27.0 mg/kg/injection, schedule: Q01DX005 (iv), vehicle: water): 112 % of control and 106 % of control | T/C (dose: 30.0 mg/kg/injection, schedule: Q01DX009 (sc), vehicle: water): 97 % of control | T/C (dose: 33.41 mg/kg/injection, schedule: Q01DX009 (oral), vehicle: water): 101 % of control | T/C (dose: 40.5 mg/kg/injection, schedule: Q01DX001 (ip), vehicle: water): 226 % of control | T/C (dose: 40.5 mg/kg/injection, schedule: Q01DX001 (iv), vehicle: water): 121 % of control | T/C (dose: 49.87 mg/kg/injection, schedule: Q01DX009 (oral), vehicle: water): 100 % of control

C(C#CCN1CCOCC1)#CCN1CCOCC1
T/C (dose: 12.5 mg/kg/injection, schedule: Q01DX009 (ip), vehicle: Klucel (hydroxypropylcellulose) (HPC)): 102 % of control | T/C (dose: 12.5 mg/kg/injection, schedule: Q01DX009 (ip), vehicle: saline with Tween-80): 105 % of control | T/C (dose: 25.0 mg/kg/injection, schedule: Q01DX009 (ip), vehicle: Klucel (hydroxypropylcellulose) (HPC)): 110 % of control | T/C (dose: 25.0 mg/kg/injection, schedule: Q01DX009 (ip), vehicle: saline with Tween-80): 106 % of control | T/C (dose: 50.0 mg/kg/injection, schedule: Q01DX009 (ip), vehicle: Klucel (hydroxypropylcellulose) (HPC)): 105 % of control | T/C (dose: 50.0 mg/kg/injection, schedule: Q01DX009 (ip), vehicle: saline with Tween-80): 106 % of control | T/C [1]: 121 % of control | T/C (dose: 100.0 mg/kg/injection, schedule: Q01DX009 (ip), vehicle: saline with Tween-80): 111 % of control | T/C [2]: 107 % of control | T/C (dose: 200.0 mg/kg/injection, schedule: Q01DX009 (ip), vehicle: saline with Tween-80): 98 % of control | T/C [3]: 91 % of control | T/C (dose: 400.0 mg/kg/injection, schedule: Q01DX009 (ip), vehicle: saline with Tween-80): 86 % of control

CCCCC(NC(=O)OC(C)(C)C)C(=O)O (stereo not drawn)
T/C [1]: 97 % of control | T/C [2]: 111 % of control | T/C [3]: 90 % of control
